# Like-named read-outs stand apart in the source and are kept apart here.
# Key:
# Mahlavu [1] = test: NCI-60 sulforhodamine B (SRB) cytotoxicity assay, Mahlavu; assay type: cell-based, human; details: Homo sapiens, Mahlavu; SRB, 72 h, 2.5–40 μM, triplicate; read-out: IC50 Mahlavu
# Method: (§1) The bioactivities of the synthesized chalcones were assessed on human liver cancer cell lines and on DPSCs with NCI-SRB assay in vitro. DPSCs used to asses the bioactivity of chalcones on untransformed control cells with the potential of hepatic lineage. […] We also included 5-Fluorouracil which is used in clinics for gastrointestinal cancers and Sorafenib. All results were normalized to DMSO negative control measurements. The experiment was performed in triplicate.
# (§2) Well differentiated human primary liver cancer cell lines Huh7, HepG2 and Hep3B, and poorly differentiated Mahlavu, FOCUS and SNU475 HCC cells were cultured in Dulbecco’s Modified Eagle’s Standard (DMEM) medium supplemented with 10% Fetal Bovine Serum (FBS), 100 units/mL penicillin and 100 µg/mL streptomycin (Gibco, Invitrogen, Carlsbad, CA, USA). 0.1 mM nonessential amino acids (NEAA) which are specific to HCC cell lines also added to culture media. Cells were cultured in a 5% CO2 incubator at 37^∘C
# (§3) Primary liver cancer cells Huh7, HepG2, Hep3B, Mahlavu, FOCUS, Snu475 along with hepatic progenitor Dental pulp stem cells were seeded into 96-well plates (1,000–3,000 HCC cell/well and 10,000 cells DPSC/well ) for 24 h. The cells were then treated with increasing concentrations of the chalcones ( 2.5-40μM ). DMSO (AppliChem Biochemica, Darmstadt, Germany) was used as negative control. The growth has stopped at the end of 72 h by fixing cold with 10% (v/v) trichloroacetic acid (Merck, Schuchardt, Germany). Cells were then stained with 0.4% (m/v) of sulforhodamine (Sigma-Aldrich, St. Louis, USA) in 1% acetic acid solution. […] All experiments were done in triplicate.
# FOCUS = test: NCI-60 sulforhodamine B (SRB) cytotoxicity assay, FOCUS; assay type: cell-based, human; details: Homo sapiens; SRB, 72 h, 2.5–40 μM, triplicate; read-out: IC50 FOCUS
# Method: as §1, §2, §3
# Huh7 = test: Real-time cell electronic sensing (RT-CES) growth analysis, Huh7; assay type: cell-based; details: Homo sapiens, Huh-7
# Method: (§4) The selected 3 compounds were further analyzed with real-time cell electronic sensing (RT-CES) system to assess the real-time growth behavior of the cells treated with the compounds. Huh7 and Mahlavu liver cancer cells were treated with the selected chalcones and monitored with RT-CES. Results of the compounds were normalized to data of negative control DMSO.
# (§5) Figure 2 Real-time cell growth analysis. Human liver cancer cells Huh7 (left panel) and Mahlavu (right panel) were treated with the selected compounds. Cell index measurements were obtained by RT-CES software. DMSO was used as negative control. (A) The growth inhibition values of the compounds were obtained by the normalization with DMSO. Experiments were performed in triplicate. (B) IC50 values calculated from RT-CES experiment data. TEXT PRINTED IN THE PICTURE: (B) 1: Huh7 24h: 3.7; Huh7 72h: 5.2; Mahlavu 24h: 1.2; Mahlavu 72h: 2.3 | (B) 9: Huh7 24h: 16.1; Huh7 72h: 11.5; Mahlavu 24h: 4.9; Mahlavu 72h: 6.8 | (B) 11: Huh7 24h: 8.7; Huh7 72h: 8.8; Mahlavu 24h: 4.9; Mahlavu 72h: 6.8 DOUBTS OF THE COPYIST ABOUT THIS PICTURE: Panel B table: the picture prints no measure and no unit for the values
# (§6) Huh7 and Mahlavu cells were inoculated into the e-plate (1000–2000 cells/well). The attachment, spreading, and proliferation of the cells were monitored every 30 minutes using the Xcelligence® Real-Time Cell Analysis system (ACEA Biosciences Inc.) in a cell culture incubator. […] When cells reach to an cell index (CI) impedance values about 1.5 usually in 24 hours cells were treated with the chalcones 1, 9 and 11. DMSO was used as a negative control. Each experiment was repeated three times. The CI value was noted every 10 minutes for the first 24 hours and then every 30 minutes upon chalcone treatments. The cell inhibition rate calculated as follows (%)=[1-(CItreatedcells/CIDMSO)]×100 .
# Mahlavu [2] = test: Real-time cell electronic sensing (RT-CES) growth analysis, Mahlavu; assay type: cell-based; details: Homo sapiens
# Method: as §4, §5, §6
# Mahlavu and Huh7 cells = test: Cell cycle analysis (propidium iodide); assay type: cell-based, human; details: Mahlavu and Huh7, IC50 concentrations, 72 h
# Method: Human liver cancer cells Mahlavu and Huh7 were treated with the compounds according to the IC50 values obtained from RT-CES experiments or DMSO controls for 72hr. […] We further assessed the effects of the selected chalcones 1, 9, and 11 on the cell cycle progression analysis of liver cancer cells. Human liver cancer cells Mahlavu and Huh7 were treated with the compounds according to the IC50 values obtained from RT-CES for 72 h. Then the DNA in the treated cells were stained with propidium iodide and analyzed with fluorescent-activated cell sorter. […] In order to confirm the induction of apoptosis in human liver cancer cells treated with the chalcones, cleavage of PARP protein (marker of apoptosis) was investigated.
# Figure 3 Cell death induced by the chalcones. (A) Nuclear staining of the liver cancer cells treated with the chalcones. Human liver cancer cells (Huh7 and Mahlavu) were treated with the IC50 concentrations of the chalcones 1, 9, 11. After 72 h of incubation with the compounds or DMSO control, Hoechst (33258) staining was performed. Images were taken with fluorescent microscope (×40). Due to the strong cytotoxic activities of the chalcones the number of the cells in objective area was much less than DMSO controls. (B) Cell cycle distribution of liver cancer cells. Huh7 and Mahlavu cells were treated for 72 h with IC50 concentrations of the compounds or DMSO control. SubG1 cell cycle arrest was observed upon treatment with the compounds (blue). (C) Investigation of PARP cleavage in Huh7 and Mahlavu cells treated with the selected chalcones for 24 h.
# Then samples were stained with propidium iodide which binds to DNA and analyzed with MUSE® Cell Cycle Assay Kit (EMD Milipore).
# [3] = Huh7, 24h, read-out: IC50 values calculated from RT-CES experiment data, Huh7 24h
# [4] = Huh7, 72h, read-out: IC50 values calculated from RT-CES experiment data, Huh7 72h
# [5] = 24h, read-out: IC50 values calculated from RT-CES experiment data, Mahlavu 24h
# [6] = 72h, read-out: IC50 values calculated from RT-CES experiment data, Mahlavu 72h
SMILES,IC50 (Mahlavu [1]),IC50 (FOCUS),IC50 (Huh7; [3]),IC50 (Huh7; [4]),IC50 (Mahlavu [2]; [5]),IC50 (Mahlavu [2]; [6]),cell cycle progression (Mahlavu and Huh7 cells)
O=C(/C=C/c1ccccc1)c1ccccc1 [compound 9],6.3 µM,3.3 µM,16.1 µM,11.5 µM,4.9 µM,6.8 µM,induced SubG1 cell cycle arrest
O=C(/C=C/c1ccc(Cl)cc1)c1ccccc1 [compound 11],5.3 µM,3.1 µM,8.7 µM,8.8 µM,4.9 µM,6.8 µM,induced SubG1 cell cycle arrest
COc1ccc(C(=O)/C=C/c2cccc([N+](=O)[O-])c2)cc1 [compound 1],< 2.5 µM,4.9 µM,3.7 µM,5.2 µM,1.2 µM,2.3 µM,induced SubG1 cell cycle arrest

# Source: PMC7367369, “A small library of chalcones induce liver cancer cell death through Akt phosphorylation inhibition” (Scientific Reports, 2020)
